In patent US11267811B2, “Small molecule inhibitors of galectin-3” (BRISTOL-MYERS SQUIBB COMPANY, priority 2017, dated 2022) one finds IC50 data, which are given here for 32 molecules.

Each structure is given as a SMILES string.

In general, IC50 refers to the concentration that inhibits the measured activity by half.

In one assay the target is His-tagged recombinant human Gal-3 (hGal-3) (Homo sapiens (Human), UniProt P17931). The experiment in a line: Gal-3 HTRF assay (His-tagged hGal-3 binding to B-ASF).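 Note: compounds preincubated 30 min with hGal-3, then 1 h with B-ASF, detection via terbium anti-His antibody and streptavidin d2. Control with B-ASF counts as full signal, omitting B-ASF as background.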 Particulars: HTRF, hGal-3 15 nM, B-ASF 15 nM; read-out: hGal-3 IC50. (Time-resolved FRET reads energy transfer from a long-lived donor to a nearby acceptor.)
His-tagged recombinant human Gal-3 (hGal-3), sequence (P17931 whole entry): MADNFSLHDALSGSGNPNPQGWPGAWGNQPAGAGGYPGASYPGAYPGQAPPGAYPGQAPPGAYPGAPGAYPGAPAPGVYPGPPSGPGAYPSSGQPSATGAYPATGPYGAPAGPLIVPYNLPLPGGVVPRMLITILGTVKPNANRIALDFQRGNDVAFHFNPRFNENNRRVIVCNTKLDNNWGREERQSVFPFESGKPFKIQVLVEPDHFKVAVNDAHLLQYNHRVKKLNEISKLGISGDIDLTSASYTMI
For `OC[C@H]1O[C@@H](c2nncn2-c2cccc(-c3nnn[nH]3)c2)[C@H](O)[C@@H](n2cc(-c3cc(F)c(F)c(F)c3)nn2)[C@H]1O` [Example 112], the half-maximal inhibitory concentration (IC50) came to 0.64 µM. Take `OC[C@H]1O[C@@H](c2ncnn2-c2cccc(C(F)(F)F)c2)[C@H](O)[C@@H](n2cc(-c3cc(F)c(F)c(F)c3)nn2)[C@H]1O` [Example 36]: the IC50 was 0.22 µM. Regarding `COc1ccc(-n2cnnc2[C@@H]2O[C@H](CO)[C@H](O)[C@H](n3cc(-c4cc(F)c(F)c(F)c4)nn3)[C@H]2O)cc1` [Example 98], the IC50 is 0.45 µM.

Regarding `OC[C@H]1O[C@@H](c2nncn2-c2ccc(-c3nnn[nH]3)cc2)[C@H](O)[C@@H](n2cc(-c3cc(F)c(F)c(F)c3)nn2)[C@H]1O` [Example 111], the IC50 came out at 0.82 µM.

On to `OC[C@H]1O[C@@H](n2nncc2-c2ccc3[nH]ncc3c2)[C@H](O)[C@@H](n2cc(-c3cc(F)c(F)c(F)c3)nn2)[C@H]1O` [Example 5], for which the IC50 was found to be 0.64 µM.

As for `O=C1CCc2cc(-n3cnnc3[C@@H]3O[C@H](CO)[C@H](O)[C@H](n4cc(-c5cc(F)c(F)c(F)c5)nn4)[C@H]3O)ccc2N1` [Example 121], the half-inhibitory concentration (IC50) came out at 0.26 µM. On the same count and under the same terms, the figure for `COc1ccc(-n2cnnc2[C@@H]2O[C@H](CO)[C@H](O)[C@H](n3cc(-c4cc(F)c(F)c(F)c4)nn3)[C@H]2O)cc1Cl` [Example 145] is 0.23 µM; for `OC[C@H]1O[C@@H](c2ncnn2-c2cc(Cl)ccc2Cl)[C@H](O)[C@@H](n2cc(-c3cc(F)c(F)c(F)c3)nn2)[C@H]1O` [Example 47] it is 0.08 µM; for `CCO[C@@H]1[C@@H](n2cc(-c3cc(F)c(F)c(F)c3)nn2)[C@@H](O)[C@@H](CO)O[C@H]1n1nncc1-c1cccc(Cl)c1` [Example 12, (2R,3R,4S,5R,6R)-6-(5-(3-chlorophenyl)-1H-1,2,3-triazol-1-yl)-5-ethoxy-2-(hydroxymethyl)-4-(4-(3,4,5-trifluorophenyl)-1H-1,2,3-triazol-1-yl)tetrahydro-2H-pyran-3-ol] it is 0.97 µM.

In the case of `Cc1nc([C@@H]2O[C@H](CO)[C@H](O)[C@H](n3cc(-c4ccc(Cl)c(Cl)c4)nn3)[C@H]2O)n(-c2cc(Cl)ccc2C(F)(F)F)n1` [Example A3, (2S,3R,4R,5R,6R)-2-(1-(5-Chloro-2-(trifluoromethyl)phenyl)-3-methyl-1H-1,2,4-triazol-5-yl)-4-(4-(3,4-dichlorophenyl)-1H-1,2,3-triazol-1-yl)-6-(hydroxymethyl)tetrahydro-2H-pyran-3,5-diol], the IC50 stood at 0.033 µM. For `Cc1nc2ccc(-n3cnnc3[C@@H]3O[C@H](CO)[C@H](O)[C@H](n4cc(-c5cc(F)c(F)c(F)c5)nn4)[C@H]3O)cc2[nH]1` [Example 160], the IC50 came out at 0.33 µM. As to `OC[C@H]1O[C@@H](c2ncnn2-c2ccc3ncsc3c2)[C@H](O)[C@@H](n2cc(-c3cc(F)c(F)c(F)c3)nn2)[C@H]1O` [Example 46], the IC50 turned out to be 0.04 µM. The same measure, in the same setting: the result for `Cc1nc([C@@H]2O[C@H](CO)[C@H](O)[C@H](n3cc(-c4cc(F)c(Cl)c(F)c4)nn3)[C@H]2O)n(-c2cc(Cl)ccc2Cl)n1` [Example 260] reads 0.05 µM; that for `COc1cccc(-n2ncnc2[C@@H]2O[C@H](CO)[C@H](O)[C@H](n3cc(-c4cc(F)c(F)c(F)c4)nn3)[C@H]2O)c1` [Example 23], 0.15 µM. The same measure, in the same setting: the figure for `CO[C@@H]1[C@@H](n2cc(-c3cc(F)c(F)c(F)c3)nn2)[C@@H](O)[C@@H](CO)O[C@H]1c1ncnn1-c1ccc2ncsc2c1` [Example 192] is 0.04 µM; for `Cc1nc2cc(Cl)c(-n3ncnc3[C@H]3C[C@@H](n4cc(-c5cc(F)c(F)c(F)c5)nn4)[C@@H](O)[C@@H](CO)O3)cc2s1` [Example 182] it is 0.12 µM; for `OC[C@H]1O[C@@H](c2nncn2-c2ccc(F)c(Cl)c2)[C@H](O)[C@@H](n2cc(-c3cc(F)c(F)c(F)c3)nn2)[C@H]1O` [Example 156] it is 0.05 µM.

On to `Cc1cccc(-n2cnnc2[C@@H]2O[C@H](CO)[C@H](O)[C@H](n3cc(-c4cc(F)c(F)c(F)c4)nn3)[C@H]2O)c1` [Example 155], for which the IC50 stood at 0.15 µM. Regarding `CNC(=O)c1cn([C@H]2[C@@H](O)[C@@H](CO)O[C@@H](c3ncnn3-c3ccc4nc(C)sc4c3)[C@@H]2O)nn1` [Example 195], the IC50 turned out to be 1.16 µM. The same measure, in the same setting: the result for `CNC(=O)c1nnc([C@@H]2O[C@H](CO)[C@H](O)[C@H](n3cc(-c4cccc(F)c4)nn3)[C@H]2O)o1` [Example 295, 5-((2R,3R,4S,5R,6R)-4-(4-(3-fluorophenyl)-1H-1,2,3-triazol-1-yl)-3,5-dihydroxy-6-(hydroxymethyl)tetrahydro-2H-pyran-2-yl)-N-methyl-1,3,4-oxadiazole-2-carboxamide] reads 14.4 µM.

Regarding `O=C(NCCN1CCOCC1)c1nnc([C@@H]2O[C@H](CO)[C@H](O)[C@H](n3cc(-c4cccc(F)c4)nn3)[C@H]2O)o1` [Example 299, 5-((2R,3R,4S,5R,6R)-4-(4-(3-fluorophenyl)-1H-1,2,3-triazol-1-yl)-3,5-dihydroxy-6-(hydroxymethyl)tetrahydro-2H-pyran-2-yl)-N-(2-morpholinoethyl)-1,3,4-oxadiazole-2-carboxamide], the IC50 came out at 10.6 µM.

As for `OC[C@H]1O[C@@H](n2nncc2-c2ccccc2)[C@H](O)[C@@H](n2cc(-c3cc(F)c(F)c(F)c3)nn2)[C@H]1O` [Example 3], the IC50 turned out to be 0.617 µM. Still for that read-out and setting: the result for `Cc1nc([C@H]2C[C@@H](n3cc(-c4cc(F)c(F)c(F)c4)nn3)[C@@H](O)[C@@H](CO)O2)n(-c2ccc3ncsc3c2)n1` [Example 186] reads 0.05 µM.

Staying with this assay, now noted: read-out: hGal3 IC50.
In the case of `Cc1nc([C@@H]2O[C@H](CO)[C@H](O)[C@H](n3cc(-c4ccc(Cl)c(F)c4)nn3)[C@H]2O)n(-c2cc(F)ccc2C(F)(F)F)n1` [Example 254], the IC50 was determined as 0.11 µM. On to `Cc1nc2ccc(-n3ncnc3[C@@H]3O[C@H](CO)[C@H](O)[C@H](n4cc(-c5ccc(Cl)c(F)c5)nn4)[C@H]3O)cc2s1` [Example 217], for which the IC50 turned out to be 0.07 µM.

For the molecule `Cc1nc([C@@H]2O[C@H](CO)[C@H](O)[C@H](n3cc(-c4ccc(Cl)c(F)c4)nn3)[C@H]2O)n(-c2ccc(Cl)c(Cl)c2)n1` [Example 252], the IC50 came to 0.11 µM. On the same count and under the same terms, the figure for `Cc1nc2ccc(-n3ncnc3[C@@H]3O[C@H](CO)[C@H](O)[C@H](n4cc(-c5ccc(C)c(F)c5)nn4)[C@H]3O)cc2s1` [Example 212] is 0.06 µM; for `CO[C@@H]1[C@@H](n2cc(-c3cc(F)c(Cl)c(F)c3)nn2)[C@@H](O)[C@@H](CO)O[C@H]1c1nnc(C)n1-c1cc(Cl)ccc1C(F)(F)F` [Example 310] it is 0.022 µM; for `Cc1nc2ccc(-n3cnnc3[C@@H]3O[C@H](CO)[C@H](O)[C@H](n4cc(-c5ccc(Cl)c(F)c5)nn4)[C@H]3O)cc2s1` [Example 303] it is 0.023 µM.

The same assay, now with this note: read-out: hGal IC50.
`Cc1nc([C@@H]2O[C@H](CO)[C@H](O)[C@H](n3cc(-c4ccc5ncsc5c4)nn3)[C@H]2O)n(-c2cc(Cl)ccc2C(F)(F)F)n1` [Example A63]: the IC50 came to 0.291 µM.

As for `Cc1nc([C@@H]2O[C@H](CO)[C@H](O)[C@H](n3cc(-c4ccc(Cl)c(F)c4)nn3)[C@H]2O)n(-c2ccc3nc(C(F)(F)F)sc3c2)n1` [Example A9], the IC50 turned out to be 0.837 µM. Same read-out and setting: the result for `Cc1nc([C@@H]2O[C@H](CO)[C@H](O)[C@H](n3cc(-c4ccc(Br)c(F)c4)nn3)[C@H]2O)n(-c2cc3sc(C)nc3cc2C(F)(F)F)n1` [Example A31] reads 0.022 µM.
